In patent EP2050437A1, “Improved pharmaceutical dry powder compositions for inhalation” (Laboratoires SMB, priority 2007, dated 2009):

How the values were obtained:
Assay type in all cases: physicochemical
[1] = Particle size distribution by laser diffraction, Spraytec with inhalation cell (simulated breathing); conditions: agglomerates as at the exit of the DPI
Description: However, it may be desirable for unstable (redispersible) agglomerates to be formed in the powder, and the size of the agglomerates may be as large as 10 µm or more. The size of particles in the powder, when considering the agglomerates, is to be taken as the size of the individual particles making up the agglomerate. The sizes of the individual particles and of the agglomerates may be determined using a suitable laser light diffraction techniques. For example, the higher compressed air values applied in the dispersion unit of the Mastersizer 2000® (Malvern, U.K.) (up to 4 bar), permit all the agglomerates to break down, especially for micron-sized powders, as is the case for DPI formulations. […] This allows the size properties of DPIs to be measured under simulated breathing conditions. For each formulation, the particle size distribution is measured by laser diffractometry, using a dry sampling system with a suitable SOP (Standard Operating Procedure), (Scirocco®, Mastersizer 2000, Malvern, UK) and a Spraytec, (Malvern). The particle size distribution measured with the Mastersizer 2000, Scirocco (Malvern) gives an indication of the size distribution of the individual particles of the powder composition as the powder agglomerates are broken down during the measuring process. […]

[2] = Particle size distribution by laser diffraction, Mastersizer 2000 with dry sampling (Scirocco); conditions: individual particles, dry powder
Description: However, it may be desirable for unstable (redispersible) agglomerates to be formed in the powder, and the size of the agglomerates may be as large as 10 µm or more. The size of particles in the powder, when considering the agglomerates, is to be taken as the size of the individual particles making up the agglomerate. The sizes of the individual particles and of the agglomerates may be determined using a suitable laser light diffraction techniques. For example, the higher compressed air values applied in the dispersion unit of the Mastersizer 2000® (Malvern, U.K.) (up to 4 bar), permit all the agglomerates to break down, especially for micron-sized powders, as is the case for DPI formulations. […] For each formulation, the particle size distribution is measured by laser diffractometry, using a dry sampling system with a suitable SOP (Standard Operating Procedure), (Scirocco®, Mastersizer 2000, Malvern, UK) and a Spraytec, (Malvern). […] The particle size distribution measured with the Mastersizer 2000, Scirocco (Malvern) gives an indication of the size distribution of the individual particles of the powder composition as the powder agglomerates are broken down during the measuring process. […]

[3] = In vitro deposition / fine particle assessment with Multi-stage Liquid Impinger (MsLI), Aerolyzer device; parameters: Metered dose / Device / Throat / Stage 1 / Stage 2 / Stage 3 / Stage 4 / Filter: unit not given here; conditions: loaded dose=15mg; for FPD: Fine Particle Dose, aerodynamic diameter inferior to 5 µm
Experimental: The Fine Particle Dose (FPD) has been determined by the method described in the European Pharmacopoeia 4 for the aerodynamic assessment of fine particle, using Apparatus C - Multi-stage Liquid Impinger (MsLI). A dry powder inhalation device (Aerolyzer®, Novartis, Switzerland) was filled with a No. 3 HPMC capsule (Capsugel, France) loaded with 15 mg powder. The flow rate was adjusted to a pressure drop of 4 kPa, as typical for inspiration by a patient, resulting in a flow rate of 100 l/min during 2.4 seconds. At least 3 Fine Particle Dose (FPD) determinations were performed on each formulation and analysis was carried out by a suitable and validated analytical HPLC method. In order to increase the UV absorptivity of the molecule, a derivatization method was applied. The suitable and validated quantification method is described in the USP 25. The HPLC system consisted of a High Performance Liquid Chromatography system (HP 1100 series, Agilent technologies, Belgium), equipped with a quartenary pump, an autosampler and a variable wavelength UV detector set at 365 nm. The separation system was a 30 cm x 3.9 mm stainless steel (5 µm particle size) reversed-phase C18 column (Alltima, Alltech, Belgium). Samples of 20 µl volume were injected. The mobile phase was prepared by dissolving 2 g of Tris(hydroxymethyl) aminomethane in 800 ml of water. After this, 20 ml of H2SO4 1 N was added and then the solution was diluted with acetonitrile to obtain 2 l, mixed and passed through a filter of 0.2 µm porosity. The flow rate was 1.2 ml/min. The mass of test substance retained at each stage was determined from the HPLC analysis of the recovered solutions. Starting at the filter, a cumulative mass deposition (undersize in percentage) vs. cut-off diameter of the respective stages was derived and the FPD was calculated by interpolating the mass of active ingredient less than 5 µm. […] It is considered to be directly proportional to the amount of drug able to reach the pulmonary tract in vivo, and consequently, the higher the value FPD, the higher the estimated lung deposition. […] Table 2: In vitro deposition study, with formulation given in example 1 vs. micronized tobramycin (raw material) (loaded dose=15mg, n=3).

particles having a diameter below 5.0 µm [1]: 72%
mass median diameter (d(0.5)) [2]: about 1.3 µm
FPD ([3]; n=3): 5.5 ± 0.9 mg
FPD ([3]; n=3, listed as micronized tobramycin): around 5.5 mg
Metered dose ([3]; n=3): 12.9 ± 0.3
Filter ([3]; mass deposited, n=3): 1.4 ± 0.3
Stage 1 ([3]; mass deposited, n=3): 0.9 ± 0.3
Stage 2 ([3]; mass deposited, n=3): 0.6 ± 0.4
Stage 3 ([3]; mass deposited, n=3): 2.1 ± 0.9
Stage 4 ([3]; mass deposited, n=3): 1.7 ± 0.6
Throat ([3]; mass deposited, n=3): 0.3 ± 0.1
Device ([3]; mass deposited, n=3, 100 l/min during 2.4 seconds): 6.0 ± 0.7
Compound: NC[C@H]1O[C@H](O[C@H]2[C@H](O)[C@@H](O[C@H]3O[C@H](CO)[C@@H](O)[C@H](N)[C@H]3O)[C@H](N)C[C@@H]2N)[C@H](N)C[C@@H]1O [Micronized tobramycin, tobramycin]
